Assay results as given in patent US20140024527A1, “HERBICIDAL PYRAZINONES” (E I DU DE NEMOURS AND COMPANY, priority 2011, published 2014).

What was measured:
Assay in all cases: Test A postemergence
Type in all cases: in vivo
Conditions in all cases: 0 to 100 scale, 0 no effect, 100 complete control, approx. 10 days
[1] = tested on: barnyardgrass (Echinochloa crus-galli)
How it was run: (§1)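 After planting into loam soil blended with sand, pots were treated either preemergence by directed soil spray or postemergence on seedlings 2 to 10 cm tall. Plants stayed in the greenhouse roughly 10 days before visual comparison with controls; 100 denotes complete control.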

[2] = tested on: morningglory (Ipomoea spp.)
How it was run: as §1

[3] = tested on: velvetleaf (Abutilon theophrasti)
How it was run: as §1

[4] = tested on: wheat (Triticum aestivum)
How it was run: as §1

corn (Zea mays) = tested on: corn (Zea mays)
How it was run: as §1

[5] = tested on: large crabgrass (Digitaria sanguinalis)
How it was run: as §1

[6] = tested on: pigweed (Amaranthus retroflexus)
How it was run: as §1

[7] = tested on: giant foxtail (Setaria faberii)
How it was run: as §1

SMILES | Plant response rating, Barnyardgrass ([1]; 125 g ai/ha) | Plant response rating, Barnyardgrass ([1]; 500 g ai/ha) | Plant response rating, Morningglory ([2]; 125 g ai/ha) | Plant response rating, Morningglory ([2]; 500 g ai/ha) | Plant response rating, Velvetleaf ([3]; 125 g ai/ha) | Plant response rating, Velvetleaf ([3]; 500 g ai/ha) | Plant response rating, Wheat ([4]; 125 g ai/ha) | Plant response rating, Wheat ([4]; 500 g ai/ha) | Plant response rating, Corn (corn (Zea mays); 125 g ai/ha) | Plant response rating, Corn (corn (Zea mays); 500 g ai/ha) | Plant response rating, Crabgrass, Large ([5]; 125 g ai/ha) | Plant response rating, Crabgrass, Large ([5]; 500 g ai/ha) | Plant response rating, Pigweed ([6]; 125 g ai/ha) | Plant response rating, Pigweed ([6]; 500 g ai/ha) | Plant response rating, Foxtail, Giant ([7]; 125 g ai/ha) | Plant response rating, Foxtail, Giant ([7]; 500 g ai/ha)
COCCn1c(-c2cccc(F)c2)c(Cl)nc(C(=O)C2=C(O)CCCC2=O)c1=O [Compound 4, 5-chloro-6-(3-fluorophenyl)-3-[(2-hydroxy-6-oxo-1-cyclohexen-1-yl)carbonyl]-1-(2-methoxyethyl)-2(1H)pyrazinone] | 60 | 100 | 90 | 100 | 100 | 100 | 0 | 10 | 0 | 40 | 80 | 100 | 80 | 100 | 30 | 70
COCCn1c(-c2cc(F)cc(F)c2)c(Cl)nc(C(=O)C2=C(O)CCCC2=O)c1=O [Compound 6, 5-chloro-6-(3,5-difluorophenyl)-3-[(2-hydroxy-6-oxo-1-cyclohexen-1-yl)carbonyl]-1-(2-methoxyethyl)-2(1H)-pyrazinone] | 90 | 100 | 90 | 100 | 100 | 100 | 0 | 20 | 0 | 40 | 80 | 100 | 70 | 100 | 50 | 90
